From US20130252930A1 (BIOMARIN PHARMACEUTICAL INC., priority 2010, published 2013)
Read-outs that look alike come from different tables or passages of the source.

Columns and labels:
[1] = target: T1, CYP17 (human testicular microsome) (Homo sapiens, UniProt P05093); experiment: CYP17 enzymatic assay (IC50) (Biological Example 4); type: biochemical
T1 construct: using microsomal fraction from human testis (Celsis Cat #S00110) as the enzyme source; tissue Celsis S00110; host or cells: human testis microsomal fraction
T1 sequence (P05093 1-508): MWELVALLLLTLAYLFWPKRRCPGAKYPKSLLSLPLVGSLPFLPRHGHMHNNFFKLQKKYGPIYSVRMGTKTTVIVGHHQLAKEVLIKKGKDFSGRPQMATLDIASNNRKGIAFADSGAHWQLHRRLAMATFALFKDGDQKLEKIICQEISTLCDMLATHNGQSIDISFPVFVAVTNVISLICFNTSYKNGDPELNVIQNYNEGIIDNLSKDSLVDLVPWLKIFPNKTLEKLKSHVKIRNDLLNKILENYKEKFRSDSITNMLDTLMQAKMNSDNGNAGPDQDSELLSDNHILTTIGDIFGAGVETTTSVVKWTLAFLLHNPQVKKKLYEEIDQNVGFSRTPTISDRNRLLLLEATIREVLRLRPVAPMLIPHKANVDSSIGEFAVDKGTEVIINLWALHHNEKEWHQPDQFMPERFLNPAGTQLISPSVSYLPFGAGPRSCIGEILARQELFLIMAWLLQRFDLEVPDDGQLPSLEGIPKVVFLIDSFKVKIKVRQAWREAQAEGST

[2] = target: T1, CYP17 (human testicular microsome); experiment: CYP17 enzymatic assay (% inhibition at 10 nM), version 1 (Biological Example 5); type: biochemical; conditions: 10 nM compound, DHEA by ELISA, read-out: Biological Example No. 5: CYP17 percent inhibition at 10 nM (version 1)
[3] = target: T2, Cyp21 enzyme (Human HEK 293-Cyp21 stable transfected cells) (Homo sapiens, UniProt P08686); experiment: CYP21-HEK293 enzymatic assay (% inhibition at 100 nM) (Biological Example 10); type: cell-based; conditions: 100 nM compound, HEK 293-Cyp21 cells; read-out: Biological Example No. 10: CYP21-HEK293 percent inhibition at 100 nM
T2 construct: expressed in transfected cells
T2 sequence (P08686 1-495): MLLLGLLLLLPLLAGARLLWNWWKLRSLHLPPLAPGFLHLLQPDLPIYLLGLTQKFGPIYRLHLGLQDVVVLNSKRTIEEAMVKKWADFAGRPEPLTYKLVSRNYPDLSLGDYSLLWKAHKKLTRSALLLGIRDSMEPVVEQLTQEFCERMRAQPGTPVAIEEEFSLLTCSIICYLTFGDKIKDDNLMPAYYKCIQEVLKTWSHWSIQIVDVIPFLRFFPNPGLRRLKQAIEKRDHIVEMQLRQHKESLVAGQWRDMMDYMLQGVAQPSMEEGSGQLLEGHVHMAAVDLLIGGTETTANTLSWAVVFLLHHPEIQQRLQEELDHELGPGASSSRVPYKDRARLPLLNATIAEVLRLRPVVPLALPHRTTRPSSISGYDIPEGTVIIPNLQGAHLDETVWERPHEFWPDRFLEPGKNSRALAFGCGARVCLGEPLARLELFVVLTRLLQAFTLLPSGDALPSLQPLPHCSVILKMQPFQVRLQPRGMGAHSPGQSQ
Summary of the method: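 HEK293 cells stably expressing human Cyp21 in DMEM + 10% FBS got compound (100 nM reported) for 5 h at 37 °C; 1% methanol served as mock. Progesterone substrate (final 10 μM) was then added for 20 h. DOC in the medium was measured by competitive ELISA (OD 450 nm) against a standard curve.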

[4] = Rat liver microsome stability assay (Biological Example 8a); conditions: liver microsomes, pH 7.4
[5] = system: rat Cyp11B enzyme (rat adrenal mitochondria); experiment: CYP11B enzymatic assay (% inhibition at 100 nM) (Biological Example 9); type: biochemical; conditions: 100 nM compound, cortisol by ELISA
Summary of the method: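 Sprague Dawley rat adrenal mitochondria were incubated with compound at 100 nM, 0.5 mM NADPH and 0.1 μM 11-deoxycortisol (pH 7.4 Tris buffer) for 60 min at 37 °C. Cortisol was measured by ELISA and corrected by subtracting the no-NADPH background. % inhibition is relative to the no-compound reaction.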

[6] = Human liver microsome stability assay (Biological Example 8b); conditions: liver microsomes, pH 7.4
Method: (§1) The reaction was started with addition of excess NADPH (5 mg/mL, 15 μL in 0.1 M potassium phosphate buffer, 1.0 mM EDTA, pH 7.4), the total volume is 45 μL (compound final concentration was 1 μM). […] 50 μL of the supernatant was transferred from each well into a 96-well sample plate containing 50 μL of ultra-pure water (Millipore) for LC-MS/MS analysis.

CYP17 (H295R cells) = target: T3, CYP17 (H295R cells) (Homo sapiens, UniProt P05093); experiment: CYP17 cellular assay (IC50), testosterone in H295R cells (Biological Example 7); type: cell-based
T3 construct: endogenous in cells; host or cells: H295R cells
T3 sequence (P05093 1-508): T1 sequence (P05093 1-508)
Summary of the method: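 H295R cells cultured 24 h, then exposed to compound at 100, 10, 1, 0.1 nM final in serum-free DMEM/F-12 with ITS+ and 0.1% methanol for 24 h at 37 °C. Medium testosterone measured by ELISA and plotted against compound concentration.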

[7] = target: T1, CYP17 (human testicular microsome); experiment: CYP17 enzymatic assay (% inhibition at 1 nM) (Biological Example 12); type: biochemical; conditions: compound at 1 nM, read-out: CYP17 enzymatic assay % inhibition at 1 nM (Biological Example No. 12)
in vitro = conditions: human, microsomes, pH 7.4
Method: as §1

[8] = human testicular microsome, DHEA by ELISA, read-out: Biological Example No. 4: CYP17 enzymatic assay IC50
[9] = H295R cells, testosterone by ELISA, 24 hours, read-out: Biological Example No. 7: CYP17 cellular assay IC50

Structure (SMILES) | IC50 [1, 8] [nM] | inhibition at 0.01 µM [2] [%] | inhibition at 0.1 µM [3] [%] | half-life at 1 μM [4] [min] | Biological Example No. 9: CYP11B percent inhibition at 100 nM [5] | half-life at 1 μM [6] [min] | IC50 (CYP17 (H295R cells); [9]) [nM] | IC50 [1] [nM] | IC50 (CYP17 (H295R cells)) [nM] | inhibition at 0.001 µM [7] [%] | half-life at 1 μM (in vitro) [min]
Cc1cncc(C2=CC[C@H]3[C@@H]4CCC5=CC(=O)NCC[C@]5(C)[C@H]4CC[C@]23C)c1 [Compound 51] | < 11 | 50 to 80 | ≥ 30 | 10 to 60 | – | – | – | – | – | – | –
C[C@]12CCNC(=O)C=C1CC[C@@H]1[C@@H]2CC[C@]2(C)C(n3ccnn3)=CC[C@@H]12 [Compound 59] | – | > 80 | < 30 | 1 to 10 | na (“na” means the compound was not active under the conditions tested) | > 50 | – | – | – | – | –
C[C@]12CCNC(=O)C=C1CC[C@@H]1[C@@H]2CC[C@]2(C)C(c3cncnc3)=CC[C@@H]12 [Compound 60, (5aR,7aS)-5a,7a-dimethyl-8-(pyrimidin-5-yl)-4,5,5a,5b,6,7,7a,10,10a,10b,11,12-dodecahydrocyclopenta[5,6]naphtho[2,1-c]azepin-3(2H)-one] | – | 50 to 80 | ≥ 30 | 1 to 10 | – | – | – | – | – | – | –
C[C@]12CCNC(=O)C=C1CC[C@@H]1[C@@H]2CC[C@]2(C)C(c3cnccn3)=CC[C@@H]12 [Compound 61, (5aR,7aS)-5a,7a-dimethyl-8-(pyrazin-2-yl)-4,5,5a,5b,6,7,7a,10,10a,10b,11,12-dodecahydrocyclopenta[5,6]naphtho[2,1-c]azepin-3(2H)-one] | – | > 80 | ≥ 30 | 1 to 10 | – | – | – | – | – | – | –
C[C@]12CC[C@H]3[C@@H](CCC4=CC(=O)CC[C@@]43C)C1=CC=C2n1ccnc1 [Compound 75, (10R,13S)-17-(1H-imidazol-1-yl)-10,13-dimethyl-6,7,8,9,10,11,12,13-octahydro-1H-cyclopenta[a]phenanthren-3(2H)-one] | < 11 | > 80 | < 30 | 10 to 60 | U (U means the compound had a percent inhibition of greater than or equal to 32%) | > 50 | – | – | – | – | –
C[C@]12CC(=O)C[C@@H]1CC[C@@H]1[C@@H]2CC[C@]2(C)C(n3ccnc3)=CC[C@@H]12 [Compound 108, (3aS,3bS,5aS,8aS,8bR,10aS)-6-(1H-imidazol-1-yl)-3a,5a-dimethyl-3,3a,3b,4,5,5a,8,8a,8b,9,10,10a-dodecahydrodicyclopenta[a,f]naphthalen-2(1H)-one] | < 11 | > 80 | – | 1 to 10 | – | > 50 | – | – | – | – | –
Cc1cncc(C2=CC[C@H]3[C@@H]4CC[C@H]5COCCC[C@]5(C)[C@H]4CC[C@]23C)c1 [Compound 127, 3-((5aR,5bS,7aS,10aS,10bR,12aR)-5a,7a-dimethyl-3,4,5,5a,5b,6,7,7a,10,10a,10b,11,12,12a-tetradecahydro-1H-cyclopenta[5,6]naphtho[2,1-c]oxepin-8-yl)-5-methylpyridine] | < 11 | 50 to 80 | – | 1 to 10 | – | – | – | – | – | – | –
C[C@]12CCNC(=O)C[C@@H]1CC[C@@H]1[C@@H]2CC[C@]2(C)C(n3ccnn3)=CC[C@@H]12 [Compound 137] | < 11 | > 80 | – | 10 to 60 | – | > 50 | < 15 | – | – | – | –
CN1CC[C@@]2(C)C(=CC1=O)CC[C@@H]1[C@@H]2CC[C@]2(C)C(n3ccnc3)=CC[C@@H]12 [Compound 146] | < 11 | > 80 | < 30 | 10 to 60 | U (U means the compound had a percent inhibition of greater than or equal to 32%) | 1 to 50 | – | – | – | – | –
Cc1cn(C2=CC[C@H]3[C@@H]4CCC5=CC(=O)NCC[C@]5(C)[C@H]4CC[C@]23C)cn1 [Compound 154] | < 11 | 50 to 80 | – | 10 to 60 | – | – | – | – | – | – | –
C[C@]12CC[C@H]3[C@@H](CC[C@H]4CC(=O)NCC[C@@]43C)C1=CC=C2c1cccnc1 [Compound 165, (5aS,5bS,7aS,10bR,12aS)-5a,7a-dimethyl-8-(pyridin-3-yl)-3,4,5,5a,5b,6,7,7a,10b,11,12,12a-dodecahydrocyclopenta[5,6]naphtho[1,2-d]azepin-2(1H)-one] | < 11 | > 80 | < 30 | 1 to 10 | na (“na” means the compound was not active under the conditions tested) | 1 to 50 | – | – | – | – | –
C[C@]12CC[C@H]3[C@@H](CC[C@H]4C[C@@H](O)CC[C@@]43C)C1=CC=C2n1ccnc1 [Compound 170, (5S,8R,9S,10S,13S)-17-(1H-imidazol-1-yl)-10,13-dimethyl-2,3,4,5,6,7,8,9,10,11,12,13-dodecahydro-1H-cyclopenta[a]phenanthren-3-ol] | – | > 80 | – | 10 to 60 | – | > 50 | < 15 | < 11 | – | – | –
C[C@]12CC[C@H]3[C@@H](CC[C@H]4C[C@@H](O)CC[C@@]43C)C1=CC=C2n1ccnn1 [Compound 176, (3S,8R,9S,10S,13S)-10,13-dimethyl-17-(1H-1,2,3-triazol-1-yl)-2,3,4,5,6,7,8,9,10,11,12,13-dodecahydro-1H-cyclopenta[a]phenanthren-3-ol] | – | – | – | 1 to 10 | – | – | – | > 25 | > 100 | – | –
COC(=O)N[C@@H]1CC[C@@]2(C)C(CCC3C2CC[C@]2(C)C(c4cccnc4)=CCC32)C1 (stereo partly drawn) [Compound 219, methyl ((3R,10S,13S)-10,13-dimethyl-17-(pyridin-3-yl)-2,3,4,5,6,7,8,9,10,11,12,13,14,15-tetradecahydro-1H-cyclopenta[a]phenanthren-3-yl)carbamate] | – | – | – | – | – | – | – | – | – | > 50 | 1 to 50
COc1cncc(C2=CCC3C4CCC5C[C@H](NC(C)=O)CC[C@]5(C)C4CC[C@]23C)c1 (stereo partly drawn) [Compound 222, N-((3R,10S,13S)-17-(5-methoxypyridin-3-yl)-10,13-dimethyl-2,3,4,5,6,7,8,9,10,11,12,13,14,15-tetradecahydro-1H-cyclopenta[a]phenanthren-3-yl)acetamide] | – | – | – | – | – | – | – | – | – | > 50 | 1 to 50
